Experimental data published in ChEMBL document CHEMBL3233003, “Chromodomain antagonists that target the polycomb-group methyllysine reader protein chromobox homolog 7 (CBX7)” (J Med Chem, 2014).
Starred links: 1 amine or outer side, 2 acyl side, 3 side chain; linkers in the order of their positions; H or OH if unused. Non-standard residues stand in square brackets, D forms with d. Residues, ends and D or L forms follow the SMILES beside them. *: point of attachment. Lys(Me3) = C[N+](C)(C)CCCC[C@H](N)C(=O)O; Ethylenediamine = C(CN[*:2])N[*:1]; Gly(cPent) = N[C@H](C(=O)O)C1CCCC1; Hydrocinnamoyl = O=C(CCc1ccccc1)*; NBnAla = C[C@H](NCc1ccccc1)C(=O)O; Ala(cPr) = N[C@@H](CC1CC1)C(=O)O; 3Pal = N[C@@H](Cc1cccnc1)C(=O)O; Cha = N[C@@H](CC1CCCCC1)C(=O)O; Gly(cPr) = N[C@H](C(=O)O)C1CC1; Phg = N[C@H](C(=O)O)c1ccccc1; Tle = CC(C)(C)[C@H](N)C(=O)O; Nicotinoyl = O=C(c1cccnc1)*; X5 = c1ccc2[nH]c(N*)nc2c1; X9 = O[C@H]1CCCC[C@@H]1N*; NHCH(CH2OH)2 = OCC(CO)N*; Nle = CCCC[C@H](N)C(=O)O; Cbz = O=C(OCc1ccccc1)*; Boc = CC(C)(C)OC(=O)*; Bz = O=C(c1ccccc1)*; NHCH2CH2OH = OCCN*; X8 = OCC1(N*)CCCC1; X4 = CC(C)C(CO)N*; X1 = CCCC(CO)N*; NHPr = CCCN*

What follows are molecules tested against T1, Chromobox protein homolog 7 (Homo sapiens, UniProt O95931) (assay: Displacement of FITC-labeled H3K27me3 from CBX7 (unknown origin) after 15 mins by fluorescence polarization assay).
T1 sequence (O95931 whole entry): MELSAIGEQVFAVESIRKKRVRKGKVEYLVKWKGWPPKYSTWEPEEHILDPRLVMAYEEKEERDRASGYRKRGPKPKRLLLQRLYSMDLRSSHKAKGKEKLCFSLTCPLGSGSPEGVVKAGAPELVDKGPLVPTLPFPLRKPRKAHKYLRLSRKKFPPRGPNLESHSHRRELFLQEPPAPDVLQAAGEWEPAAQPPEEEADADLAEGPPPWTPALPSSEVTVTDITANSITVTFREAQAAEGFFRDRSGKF

Row | SMILES | IC50
1 | CC[C@H](NC(=O)[C@H](Cc1ccccc1)NC(C)=O)C(=O)N[C@@H](CC(C)C)C(=O)N[C@@H](CCCC[N+](C)(C)C)C(=O)N[C@@H](CO)C(N)=O | 39 µM
2 | CC(=O)N[C@@H](Cc1ccccc1)C(=O)N[C@@H](C)C(=O)N[C@@H](CC(C)C)C(=O)N[C@@H](CCCC[N+](C)(C)C)C(=O)N[C@@H](CO)C(=O)O | 27 µM
3 | CC(=O)N[C@@H](Cc1ccccc1)C(=O)N[C@@H](C)C(=O)N[C@@H](CC(C)C)C(=O)N[C@@H](CCCC[N+](C)(C)C)C(=O)N[C@H](CO)C(=O)O | 79 µM
4 | CC(C)C[C@H](NC(=O)[C@H](C)NCc1ccc(C(=O)O)cc1)C(=O)N[C@@H](CCCC[N+](C)(C)C)C(=O)N[C@@H](CO)C(N)=O | > 2000 µM
5 | CC(=O)N[C@@H](Cc1ccccc1)C(=O)N[C@@H](C)C(=O)N[C@@H](Cc1ccccc1)C(=O)N[C@@H](CCCC[N+](C)(C)C)C(=O)N[C@@H](CO)C(N)=O (Ac-FAF[Lys(Me3)]S-NH2) | 10.3 µM
6 | CC[C@H](C)[C@H](NC(=O)[C@H](C)NC(=O)[C@H](Cc1ccccc1)NC(C)=O)C(=O)N[C@@H](CCCC[N+](C)(C)C)C(=O)N[C@@H](CO)C(N)=O (Ac-FAI[Lys(Me3)]S-NH2) | 5.7 µM
7 | CC(=O)N[C@@H](Cc1ccccc1)C(=O)N[C@@H](C)C(=O)N[C@@H](CCCCN)C(=O)N[C@@H](CCCC[N+](C)(C)C)C(=O)N[C@@H](CO)C(N)=O (Ac-FAK[Lys(Me3)]S-NH2) | 10.1 µM
8 | CC(=O)N[C@@H](Cc1ccccc1)C(=O)N[C@@H](C)C(=O)N[C@@H](CC(C)C)C(=O)N[C@@H](CCCC[N+](C)(C)C)C(=O)NCCN (Ac-FAL[Lys(Me3)]-Ethylenediamine) | 22 µM
9 | CC(=O)N[C@@H](Cc1ccccc1)C(=O)N[C@@H](C)C(=O)N[C@@H](CC(C)C)C(=O)N[C@@H](CCCC[N+](C)(C)C)C(=O)NCCO (Ac-FAL[Lys(Me3)]-NHCH2CH2OH) | 26 µM
10 | CCCNC(=O)[C@H](CCCC[N+](C)(C)C)NC(=O)[C@H](CC(C)C)NC(=O)[C@H](C)NC(=O)[C@H](Cc1ccccc1)NC(C)=O (Ac-FAL[Lys(Me3)]-NHPr) | 102 µM
11 | CC(=O)N[C@@H](Cc1ccccc1)C(=O)N[C@@H](C)C(=O)N[C@@H](CC(C)C)C(=O)N[C@@H](CCCC[N+](C)(C)C)C(=O)O (Ac-FAL[Lys(Me3)]-OH) | 560 µM
12 | CCCC(CO)NC(=O)[C@H](CCCC[N+](C)(C)C)NC(=O)[C@H](CC(C)C)NC(=O)[C@H](C)NC(=O)[C@H](Cc1ccccc1)NC(C)=O (some centres not stated) (Ac-FAL[Lys(Me3)]-X1) | > 500 µM
13 | CC(=O)N[C@@H](Cc1ccccc1)C(=O)N[C@@H](C)C(=O)N[C@@H](CC(C)C)C(=O)N[C@@H](CCCC[N+](C)(C)C)C(=O)NC(CO)C(C)C (some centres not stated) (Ac-FAL[Lys(Me3)]-X4) | > 250 µM
14 | CC(=O)N[C@@H](Cc1ccccc1)C(=O)N[C@@H](C)C(=O)N[C@@H](CC(C)C)C(=O)N[C@@H](CCCC[N+](C)(C)C)C(=O)Nc1nc2ccccc2[nH]1 (Ac-FAL[Lys(Me3)]-X5) | 35 µM
15 | CC(=O)N[C@@H](Cc1ccccc1)C(=O)N[C@@H](C)C(=O)N[C@@H](CC(C)C)C(=O)N[C@@H](CCCC[N+](C)(C)C)C(=O)NC1(CO)CCCC1 (Ac-FAL[Lys(Me3)]-X8) | > 250 µM
16 | CC(=O)N[C@@H](Cc1ccccc1)C(=O)N[C@@H](C)C(=O)N[C@@H](CC(C)C)C(=O)N[C@@H](CCCC[N+](C)(C)C)C(=O)N[C@H]1CCCC[C@@H]1O (Ac-FAL[Lys(Me3)]-X9) | > 250 µM
17 | CC(=O)N[C@@H](Cc1ccccc1)C(=O)N[C@@H](C)C(=O)N[C@@H](CC(C)C)C(=O)N[C@@H](CCCC[N+](C)(C)C)C(=O)NCCNC(=O)OC(C)(C)C (Ac-FAL[Lys(Me3)]-{Ethylenediamine-Boc}) | 105 µM
18 | CC(=O)N[C@@H](Cc1ccccc1)C(=O)N[C@@H](C)C(=O)N[C@@H](CC(C)C)C(=O)N[C@@H](CCCC[N+](C)(C)C)C(=O)NC(CO)CO (Ac-FAL[Lys(Me3)]-{NHCH(CH2OH)2}) | 23 µM
19 | CSCC[C@H](NC(=O)[C@H](C)NC(=O)[C@H](Cc1ccccc1)NC(C)=O)C(=O)N[C@@H](CCCC[N+](C)(C)C)C(=O)N[C@@H](CO)C(N)=O (Ac-FAM[Lys(Me3)]S-NH2) | 62 µM
20 | CC(=O)N[C@@H](Cc1ccccc1)C(=O)N[C@@H](C)C(=O)N[C@H](C(=O)N[C@@H](CCCC[N+](C)(C)C)C(=O)N[C@@H](CO)C(N)=O)[C@@H](C)O (Ac-FAT[Lys(Me3)]S-NH2) | 35 µM
21 | CC(=O)N[C@@H](Cc1ccccc1)C(=O)N[C@@H](C)C(=O)N[C@H](C(=O)N[C@@H](CCCC[N+](C)(C)C)C(=O)N[C@@H](CO)C(N)=O)C(C)C (Ac-FAV[Lys(Me3)]S-NH2) | 6.8 µM

Row | SMILES | IC50
22 | CC(=O)N[C@@H](Cc1ccccc1)C(=O)N[C@@H](C)C(=O)N[C@@H](Cc1c[nH]c2ccccc12)C(=O)N[C@@H](CCCC[N+](C)(C)C)C(=O)N[C@@H](CO)C(N)=O (Ac-FAW[Lys(Me3)]S-NH2) | 13 µM
23 | CC(=O)N[C@@H](Cc1ccccc1)C(=O)N[C@@H](C)C(=O)N[C@@H](Cc1cccnc1)C(=O)N[C@@H](CCCC[N+](C)(C)C)C(=O)N[C@@H](CO)C(N)=O (Ac-FA[3Pal][Lys(Me3)]S-NH2) | 11 µM
24 | CC(=O)N[C@@H](Cc1ccccc1)C(=O)N[C@@H](C)C(=O)N[C@@H](CC1CC1)C(=O)N[C@@H](CCCC[N+](C)(C)C)C(=O)N[C@@H](CO)C(N)=O (Ac-FA[Ala(cPr)][Lys(Me3)]S-NH2) | 11.2 µM
25 | CC(=O)N[C@@H](Cc1ccccc1)C(=O)N[C@@H](C)C(=O)N[C@@H](CC1CCCCC1)C(=O)N[C@@H](CCCC[N+](C)(C)C)C(=O)N[C@@H](CO)C(N)=O (Ac-FA[Cha][Lys(Me3)]S-NH2) | 8.8 µM
26 | CC(=O)N[C@@H](Cc1ccccc1)C(=O)N[C@@H](C)C(=O)N[C@H](C(=O)N[C@@H](CCCC[N+](C)(C)C)C(=O)N[C@@H](CO)C(N)=O)C1CCCC1 (Ac-FA[Gly(cPent)][Lys(Me3)]S-NH2) | 6 µM
27 | CC(=O)N[C@@H](Cc1ccccc1)C(=O)N[C@@H](C)C(=O)N[C@H](C(=O)N[C@@H](CCCC[N+](C)(C)C)C(=O)N[C@@H](CO)C(N)=O)C1CC1 (Ac-FA[Gly(cPr)][Lys(Me3)]S-NH2) | 21 µM
28 | CCCC[C@H](NC(=O)[C@H](C)NC(=O)[C@H](Cc1ccccc1)NC(C)=O)C(=O)N[C@@H](CCCC[N+](C)(C)C)C(=O)N[C@@H](CO)C(N)=O (Ac-FA[Nle][Lys(Me3)]S-NH2) | 23 µM
29 | CC(=O)N[C@@H](Cc1ccccc1)C(=O)N[C@@H](C)C(=O)N[C@H](C(=O)N[C@@H](CCCC[N+](C)(C)C)C(=O)N[C@@H](CO)C(N)=O)C(C)(C)C (Ac-FA[Tle][Lys(Me3)]S-NH2) | 67 µM
30 | CC(=O)N[C@@H](Cc1ccccc1)C(=O)N[C@@H](CO)C(=O)N[C@@H](CC(C)C)C(=O)N[C@@H](CCCC[N+](C)(C)C)C(=O)N[C@@H](CO)C(N)=O (Ac-FSL[Lys(Me3)]S-NH2) | 53 µM
31 | CC(=O)N[C@@H](Cc1ccccc1)C(=O)N[C@H](C(=O)N[C@@H](CC(C)C)C(=O)N[C@@H](CCCC[N+](C)(C)C)C(=O)N[C@@H](CO)C(N)=O)C(C)C (Ac-FVL[Lys(Me3)]S-NH2) | > 500 µM
32 | CCCC[C@H](NC(=O)[C@H](Cc1ccccc1)NC(C)=O)C(=O)N[C@@H](CC(C)C)C(=O)N[C@@H](CCCC[N+](C)(C)C)C(=O)N[C@@H](CO)C(N)=O (Ac-F[Nle]L[Lys(Me3)]S-NH2) | 120 µM
33 | CC(=O)N[C@@H](Cc1c[nH]c2ccccc12)C(=O)N[C@@H](C)C(=O)N[C@@H](CC(C)C)C(=O)N[C@@H](CCCC[N+](C)(C)C)C(=O)N[C@@H](CO)C(N)=O (Ac-WAL[Lys(Me3)]S-NH2) | 7.8 µM
34 | CC(=O)N[C@@H](Cc1ccc(O)cc1)C(=O)N[C@@H](C)C(=O)N[C@@H](CC(C)C)C(=O)N[C@@H](CCCC[N+](C)(C)C)C(=O)N[C@@H](CO)C(N)=O (Ac-YAL[Lys(Me3)]S-NH2) | 8.6 µM
35 | CC(=O)N[C@H](C(=O)N[C@@H](C)C(=O)N[C@@H](CC(C)C)C(=O)N[C@@H](CCCC[N+](C)(C)C)C(=O)N[C@@H](CO)C(N)=O)c1ccccc1 (Ac-[Phg]AL[Lys(Me3)]S-NH2) | 26 µM
36 | CC(C)C[C@H](NC(=O)[C@H](C)NC(=O)c1ccccc1)C(=O)N[C@@H](CCCC[N+](C)(C)C)C(=O)N[C@@H](CO)C(N)=O (Bz-AL[Lys(Me3)]S-NH2) | 57 µM
37 | CC(C)C[C@H](NC(=O)[C@H](C)NC(=O)[C@H](Cc1ccccc1)NC(=O)c1ccccc1)C(=O)N[C@@H](CCCC[N+](C)(C)C)C(=O)N[C@@H](CO)C(N)=O (Bz-FAL[Lys(Me3)]S-NH2) | 8.8 µM
38 | CC(C)C[C@H](NC(=O)[C@H](C)NC(=O)CNC(=O)c1ccccc1)C(=O)N[C@@H](CCCC[N+](C)(C)C)C(=O)N[C@@H](CO)C(N)=O (Bz-GAL[Lys(Me3)]S-NH2) | 58 µM
39 | CC(C)C[C@H](NC(=O)[C@H](C)NC(=O)OCc1ccccc1)C(=O)N[C@@H](CCCC[N+](C)(C)C)C(=O)N[C@@H](CO)C(N)=O (Cbz-AL[Lys(Me3)]S-NH2) | 58 µM
40 | CC(C)C[C@H](NC(=O)[C@H](C)NCc1ccccc1)C(=O)N[C@@H](CCCC[N+](C)(C)C)C(=O)N[C@@H](CO)C(N)=O (H-[NBnAla]L[Lys(Me3)]S-NH2) | > 2000 µM
41 | CC(C)C[C@H](NC(=O)[C@H](C)NC(=O)CCc1ccccc1)C(=O)N[C@@H](CCCC[N+](C)(C)C)C(=O)N[C@@H](CO)C(N)=O (Hydrocinnamoyl-AL[Lys(Me3)]S-NH2) | 26 µM
42 | CC(C)C[C@H](NC(=O)[C@H](C)NC(=O)c1cccnc1)C(=O)N[C@@H](CCCC[N+](C)(C)C)C(=O)N[C@@H](CO)C(N)=O (Nicotinoyl-AL[Lys(Me3)]S-NH2) | 91 µM
